Source: patent publication US20240239804A1, “FUROINDAZOLE DERIVATIVES AS ANTAGONISTS OR INHIBITORS OF GPR84” (Bayer Aktiengesellschaft, priority 2021, published 2024)

biological target: T1, human GPR84 receptor (Homo sapiens, UniProt Q9NQS5); assay: cAMP HTRF assay for identification of cellular GPR84 antagonists; assay type: cell-based; conditions: CHO-K1 cells stably expressing human GPR84; Forskolin plus agonist 6-OAU; cAMP HTRF readout; average or median values
T1 construct: frozen aliquots prepared by acCELLerate; host or cells: CHO-K1
From the text: cAMP HTRF® Assay for Identification of Cellular GPR84 Antagonists
By using a Homogenous Time-Resolved Fluorescence (HTRF®) based assay (#62AM5PEJ, Cisbio, Condolet, France) the inhibition of the Gi-coupled GPR84 receptor can be detected. CHO-K1 cells stably expressing human GPR84 receptor (purchased from DiscoveRx, now Eurofins) were used and treated with Forskolin (F6886, Sigma, Germany) to stimulate membrane adenylyl cyclases and thereby unspecific cAMP formation. Activation of the Gi-coupled GPR84 by a natural or small molecule agonist (e.g. 6-n-octyl aminouracile, inhouse) results in inhibition of cellular cAMP formation which can be released again by antagonists to this receptor. Detection and quantification of cellular cAMP levels in this HTRF assay is achieved by interaction between a fluorescent cAMP tracer (cAMP-d2) and an Eu-cryptate labelled anti-cAMP antibody. Following excitation at 337 nm this pairing allows for the generation of a fluorescence resonance energy transfer (FRET) between the partners and results in FRET induced emissions at 665 nm and 620 nm, the latter representing background signal by Eu-cryptate labelled anti-cAMP antibody. Maximal signal is obtained in the absence of any cellular cAMP (no competition for the binding of the tracer to the antibody). Given the combination of the Gi coupling properties of GPR84 and the competitive nature of the detection system agonist treatment should result in an increase in the HTRF signal due to lowered cAMP levels. Any signal decrease in the presence of Forskolin, agonist and compound are indicative of antagonist mediated abrogation of GPR84 signalling.
For the assay, frozen aliquots of CHO-K1 cells expressing hGPR84 (prepared by acCELLerate, Hamburg, Germany) were thawed and a cell suspension (1.67E+06 cells/mL) in assay media (Ham's F12 Nutrient Mix, Thermo Fisher Scientific, Waltham, USA; 5% fetal calf serum, Biomol, Hamburg, Germany) containing cAMP-d2 (dilution 1:20, supplied with the kit #62AM5PEJ, Cisbio, Condolet, France) was prepared. After recovery of cells for 20 minutes at 37° C., 3 μL/well cell suspension including cAMP-d2 were added to a pre-dispensed assay plate (Greiner Bio-One, Kremsmuenster, Austria) containing 50 nl/well test compound in 100% DMSO or 100% DMSO as control. This was followed by a 30 minute incubation step at room temperature. The stimulation time was started by addition of 2 μL/well assay media containing 2.5×EC80 agonist 6-OAU and 2.5×EC90 Forskolin (negative control: 2.5×EC90 Forskolin in assay media) and was continued for 30 minutes at room temperature. The reaction was stopped by addition of 3 μL/well lysis buffer containing cAMP Eu-Cryptate antibody (dilution 1:20) (both supplied with the kit #62AM5PEJ, Cisbio, Condolet, France). To enable complete lysis, plates were incubated for 60 minutes at room temperature before measurement in an HTRF reader, e.g. a PHERAstar (BMG Labtech, Ortenberg, Germany).
From the fluorescence emissions at 665 nm (FRET) and at 620 nm (background signal of Eu-cryptate) the ratio (emission at 665 nm divided by emission at 620 nm×10000) was calculated and the data were normalized (reaction without test compound, only 100% DMSO=0% inhibition; all other assay components except agonist=100% inhibition). For dose response testing on the same microtiter plate, compounds were tested at 11 different concentrations in the range of 20 μM to 0.07 nM (20 μM, 5.7 μM, 1.6 μM, 0.47 μM, 0.13 μM, 38 nM, 11 nM, 3.1 nM, 0.89 nM, 0.25 and 0.07 nM; dilution series prepared before the assay at the level of the 100-fold conc. stock solutions by serial 1:3.5 dilutions in 100% DMSO) in duplicate values for each concentration. IC50 values were calculated by 4-parameter fitting using a commercial software package (Genedata Screener, Basel, Switzerland).
Examples were tested in selected biological assays one or more times. […]

T1 sequence (Q9NQS5 whole entry): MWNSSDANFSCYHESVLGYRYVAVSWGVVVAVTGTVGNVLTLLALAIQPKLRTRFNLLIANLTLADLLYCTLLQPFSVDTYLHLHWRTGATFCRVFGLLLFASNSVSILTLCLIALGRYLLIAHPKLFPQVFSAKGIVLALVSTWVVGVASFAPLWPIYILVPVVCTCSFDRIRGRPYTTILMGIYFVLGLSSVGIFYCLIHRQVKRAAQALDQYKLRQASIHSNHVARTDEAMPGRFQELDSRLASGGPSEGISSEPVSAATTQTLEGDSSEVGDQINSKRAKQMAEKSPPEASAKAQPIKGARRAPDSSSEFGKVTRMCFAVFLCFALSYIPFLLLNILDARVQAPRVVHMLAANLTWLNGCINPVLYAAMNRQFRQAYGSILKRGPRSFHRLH

**Q.** With `Cc1c(C(=O)NCCN2CCCC2)oc2c1-c1nn(Cc3cccc(Cl)c3)cc1CC2` [Example 18, 2-[(3-chlorophenyl)methyl]-8-methyl-N-[2-(pyrrolidin-1-yl)ethyl]-4,5-dihydro-2H-furo[2,3-g]indazole-7-carboxamide] as the molecule, how does the IC50 read?
**A.** 1 µM

**Q.** How did the IC50 turn out when `Cc1c(C(=O)NCCN2CCCCC2)oc2c1-c1nn(Cc3cccc(Cl)c3)cc1CC2` [Example 19, 2-[(3-chlorophenyl)methyl]-8-methyl-N-[2-(piperidin-1-yl)ethyl]-4,5-dihydro-2H-furo[2,3-g]indazole-7-carboxamide] was run?
**A.** 0.78 µM

**Q.** For `Cc1c(C(=O)NCCN2CCC2)oc2c1-c1nn(Cc3cccc(Cl)c3)cc1CC2` [Example 20, N-[2-(azetidin-1-yl)ethyl]-2-[(3-chlorophenyl)methyl]-8-methyl-4,5-dihydro-2H-furo[2,3-g]indazole-7-carboxamide], which IC50 is on record?
**A.** 1.54 µM

**Q.** How did the IC50 turn out when `Cc1ccc(CNC(=O)c2oc3c(c2C)-c2nn(Cc4ccc(Cl)cc4)cc2CC3)cc1` [Example 22, 2-[(4-chlorophenyl)methyl]-8-methyl-N-[(4-methylphenyl)methyl]-4,5-dihydro-2H-furo[2,3-g]indazole-7-carboxamide] was run?
**A.** 0.34 µM

**Q.** `Cc1c(C(=O)NCCN2CCN(C)CC2)oc2c1-c1nn(Cc3ccc(Cl)cc3)cc1CC2` [Example 23, 2-[(4-chlorophenyl)methyl]-8-methyl-N-[2-(4-methylpiperazin-1-yl)ethyl]-4,5-dihydro-2H-furo[2,3-g]indazole-7-carboxamide] was tested. Which IC50 did it give?
**A.** 0.3 µM

**Q.** `Cc1c(C(=O)NCCN2CCCC2)oc2c1-c1nn(Cc3ccc(Cl)cc3)cc1CC2` [Example 24, 2-[(4-chlorophenyl)methyl]-8-methyl-N-[2-(pyrrolidin-1-yl)ethyl]-4,5-dihydro-2H-furo[2,3-g]indazole-7-carboxamide] was tested. Which IC50 did it give?
**A.** 1.05 µM

**Q.** For `Cc1c(C(=O)NCCN2CCCCC2)oc2c1-c1nn(Cc3ccc(Cl)cc3)cc1CC2` [Example 25, 2-[(4-chlorophenyl)methyl]-8-methyl-N-[2-(piperidin-1-yl)ethyl]-4,5-dihydro-2H-furo[2,3-g]indazole-7-carboxamide], which IC50 is on record?
**A.** 1.37 µM

**Q.** Which IC50 does the source give for `Cc1c(C(=O)NCCN2CCC2)oc2c1-c1nn(Cc3ccc(Cl)cc3)cc1CC2` [Example 26, N-[2-(azetidin-1-yl)ethyl]-2-[(4-chlorophenyl)methyl]-8-methyl-4,5-dihydro-2H-furo[2,3-g]indazole-7-carboxamide] here?
**A.** 1.63 µM

**Q.** How did the IC50 turn out when `Cc1c(C(=O)NCc2ccon2)oc2c1-c1nn(Cc3ccc(Cl)cc3)cc1CC2` [Example 27, 2-[(4-chlorophenyl)methyl]-8-methyl-N-[(1,2-oxazol-3-yl)methyl]-4,5-dihydro-2H-furo[2,3-g]indazole-7-carboxamide] was run?
**A.** 0.15 µM

**Q.** For `Cc1c(C(=O)NCc2ccno2)oc2c1-c1nn(Cc3ccc(Cl)cc3)cc1CC2` [Example 28, 2-[(4-chlorophenyl)methyl]-8-methyl-N-[(1,2-oxazol-5-yl)methyl]-4,5-dihydro-2H-furo[2,3-g]indazole-7-carboxamide], which IC50 is on record?
**A.** 1.01 µM

**Q.** `CC(=O)N1CCN(C(=O)CNC(=O)c2oc3c(c2C)-c2nn(Cc4ccc(Cl)cc4)cc2CC3)CC1` [Example 29, N-[2-(4-acetylpiperazin-1-yl)-2-oxoethyl]-2-[(4-chlorophenyl)methyl]-8-methyl-4,5-dihydro-2H-furo[2,3-g]indazole-7-carboxamide] was tested. Which IC50 did it give?
**A.** 8.21 µM

**Q.** How did the IC50 turn out when `CCNC(=O)CNC(=O)c1oc2c(c1C)-c1nn(Cc3ccc(Cl)cc3)cc1CC2` [Example 30, 2-[(4-chlorophenyl)methyl]-N-[2-(ethylamino)-2-oxoethyl]-8-methyl-4,5-dihydro-2H-furo[2,3-g]indazole-7-carboxamide] was run?
**A.** 0.5 µM

**Q.** How did the IC50 turn out when `CCN(CC)C(=O)CNC(=O)c1oc2c(c1C)-c1nn(Cc3ccc(Cl)cc3)cc1CC2` [Example 31, 2-[(4-chlorophenyl)methyl]-N-[2-(diethylamino)-2-oxoethyl]-8-methyl-4,5-dihydro-2H-furo[2,3-g]indazole-7-carboxamide] was run?
**A.** 2.53 µM

**Q.** How did the IC50 turn out when `COCCNC(=O)CNC(=O)c1oc2c(c1C)-c1nn(Cc3ccc(Cl)cc3)cc1CC2` [Example 32, 2-[(4-chlorophenyl)methyl]-N-{2-[(2-methoxyethyl)amino]-2-oxoethyl}-8-methyl-4,5-dihydro-2H-furo[2,3-g]indazole-7-carboxamide] was run?
**A.** 2.46 µM

**Q.** Which IC50 does the source give for `Cc1c(C(=O)NCC(=O)NC2CC2)oc2c1-c1nn(Cc3ccc(Cl)cc3)cc1CC2` [Example 33, 2-[(4-chlorophenyl)methyl]-N-[2-(cyclopropylamino)-2-oxoethyl]-8-methyl-4,5-dihydro-2H-furo[2,3-g]indazole-7-carboxamide] here?
**A.** 3.31 µM

**Q.** For `Cc1c(C(=O)NCC(=O)N2CCCC2)oc2c1-c1nn(Cc3ccc(Cl)cc3)cc1CC2` [Example 34, 2-[(4-chlorophenyl)methyl]-8-methyl-N-[2-oxo-2-(pyrrolidin-1-yl)ethyl]-4,5-dihydro-2H-furo[2,3-g]indazole-7-carboxamide], which IC50 is on record?
**A.** 1.14 µM

**Q.** Which IC50 does the source give for `Cc1c(C(=O)NCC(=O)N2CCOCC2)oc2c1-c1nn(Cc3ccc(Cl)cc3)cc1CC2` [Example 35, 2-[(4-chlorophenyl)methyl]-8-methyl-N-[2-(morpholin-4-yl)-2-oxoethyl]-4,5-dihydro-2H-furo[2,3-g]indazole-7-carboxamide] here?
**A.** 3 µM

**Q.** `Cc1c(C(=O)NCC(=O)N(C)C)oc2c1-c1nn(Cc3ccc(Cl)cc3)cc1CC2` [Example 36, 2-[(4-chlorophenyl)methyl]-N-[2-(dimethylamino)-2-oxoethyl]-8-methyl-4,5-dihydro-2H-furo[2,3-g]indazole-7-carboxamide] was tested. Which IC50 did it give?
**A.** 1.19 µM

**Q.** Which IC50 does the source give for `Cc1c(C(=O)NCc2ccn(C)n2)oc2c1-c1nn(Cc3ccc(Cl)cc3)cc1CC2` [Example 37, 2-[(4-chlorophenyl)methyl]-8-methyl-N-[(1-methyl-1H-pyrazol-3-yl)methyl]-4,5-dihydro-2H-furo[2,3-g]indazole-7-carboxamide] here?
**A.** 0.18 µM

**Q.** With `Cc1c(C(=O)NCc2nccs2)oc2c1-c1nn(Cc3ccc(Cl)cc3)cc1CC2` [Example 38, 2-[(4-chlorophenyl)methyl]-8-methyl-N-[(1,3-thiazol-2-yl)methyl]-4,5-dihydro-2H-furo[2,3-g]indazole-7-carboxamide] as the molecule, how does the IC50 read?
**A.** 0.21 µM

**Q.** With `Cc1c(C(=O)NCc2ccccn2)oc2c1-c1nn(Cc3ccc(Cl)cc3)cc1CC2` [Example 39, 2-[(4-chlorophenyl)methyl]-8-methyl-N-[(pyridin-2-yl)methyl]-4,5-dihydro-2H-furo[2,3-g]indazole-7-carboxamide] as the molecule, how does the IC50 read?
**A.** 0.28 µM

**Q.** `COCCNC(=O)c1oc2c(c1C)-c1nn(Cc3ccc(Cl)cc3)cc1CC2` [Example 40, 2-[(4-chlorophenyl)methyl]-N-(2-methoxyethyl)-8-methyl-4,5-dihydro-2H-furo[2,3-g]indazole-7-carboxamide] was tested. Which IC50 did it give?
**A.** 0.41 µM

**Q.** Which IC50 does the source give for `Cc1c(C(=O)NCc2cc[nH]n2)oc2c1-c1nn(Cc3ccc(Cl)cc3)cc1CC2` [Example 41, 2-[(4-chlorophenyl)methyl]-8-methyl-N-[(1H-pyrazol-3-yl)methyl]-4,5-dihydro-2H-furo[2,3-g]indazole-7-carboxamide] here?
**A.** 0.52 µM

**Q.** For `Cc1c(C(=O)NCc2ccc(C(N)=O)cc2)oc2c1-c1nn(Cc3ccc(Cl)cc3)cc1CC2` [Example 42, N-[(4-carbamoylphenyl)methyl]-2-[(4-chlorophenyl)methyl]-8-methyl-4,5-dihydro-2H-furo[2,3-g]indazole-7-carboxamide], which IC50 is on record?
**A.** 0.72 µM
